Reference: ChEMBL document CHEMBL1151486, “Decomposition of FK 409, a new vasodilator: Identification of nitric oxide as a metabolite” (Bioorg Med Chem Lett, 1995)

Organism: Oryctolagus cuniculus
Test: Evaluation of vasodilatory activity in Isolated rabbit aorta strips
Format: functional

| IC50 [µM] | SMILES |
| --- | --- |
| 0.15 | CC/C(=C\C(=N/O)C(N)=O)C(C)[N+](=O)[O-] (configuration not stated) |
| 7 | CC/C(=C\C(=O)C(N)=O)C(C)[N+](=O)[O-] (configuration not stated) |
